Results published in ChEMBL document CHEMBL4765432, “Design and synthesis of novel Flavone-based histone deacetylase inhibitors antagonizing activation of STAT3 in breast cancer” (Eur J Med Chem, 2020).
Active and inactive are the calls of the source. No cut-off for these calls is given here.

Legend:
4T1 [1] = experiment: Induction of cell cycle arrest in mouse 4T1 cells assessed as increase in G0/G1 phase accumulation incubated for 24 hrs by flow cytometry analysis; format: functional, cell-based; conditions: dose 1-2 µM
[2] = Half life in Sprague-Dawley rat at 20 mg/kg, iv measured upto 12 hrs by LC-MS/MS analysis; format: ADME, organism-based; conditions: in vivo
[3] = Cytotoxicity against human B16-F10 cells assessed as reduction in cell viability incubated for 48 hrs by MTT assay; format: functional, cell-based; conditions: B16-F10, 48 h
4T1 [4] = experiment: Antitumor activity against mouse 4T1 cells xenografted in BALB/c mouse assessed as tumor growth inhibition at 50 mg/kg, po administered for 22 days and measured on day 22; format: functional, organism-based; conditions: time 22.0 day
4T1 [5] = experiment: Induction of cell cycle arrest in mouse 4T1 cells assessed as S phase accumulation at 1 uM incubated for 24 hrs by PI staining based flow cytometry analysis (reference value: 19.43 %); format: functional
Histone deacetylase 7 = Histone deacetylase 7 (Homo sapiens, UniProt Q8WUI4); experiment: (§1) Inhibition of recombinant human N-terminal GST-tagged HDAC-7 (501 to end residues) expressed in baculovirus infected in Sf9 cells using Boc-Lys (q-Ac)-AMC as substrate incubated for 10 mins followed by substrate addition and measured after 30 mins by fluorescence based assay
Histone deacetylase 7, sequence (Q8WUI4 whole entry): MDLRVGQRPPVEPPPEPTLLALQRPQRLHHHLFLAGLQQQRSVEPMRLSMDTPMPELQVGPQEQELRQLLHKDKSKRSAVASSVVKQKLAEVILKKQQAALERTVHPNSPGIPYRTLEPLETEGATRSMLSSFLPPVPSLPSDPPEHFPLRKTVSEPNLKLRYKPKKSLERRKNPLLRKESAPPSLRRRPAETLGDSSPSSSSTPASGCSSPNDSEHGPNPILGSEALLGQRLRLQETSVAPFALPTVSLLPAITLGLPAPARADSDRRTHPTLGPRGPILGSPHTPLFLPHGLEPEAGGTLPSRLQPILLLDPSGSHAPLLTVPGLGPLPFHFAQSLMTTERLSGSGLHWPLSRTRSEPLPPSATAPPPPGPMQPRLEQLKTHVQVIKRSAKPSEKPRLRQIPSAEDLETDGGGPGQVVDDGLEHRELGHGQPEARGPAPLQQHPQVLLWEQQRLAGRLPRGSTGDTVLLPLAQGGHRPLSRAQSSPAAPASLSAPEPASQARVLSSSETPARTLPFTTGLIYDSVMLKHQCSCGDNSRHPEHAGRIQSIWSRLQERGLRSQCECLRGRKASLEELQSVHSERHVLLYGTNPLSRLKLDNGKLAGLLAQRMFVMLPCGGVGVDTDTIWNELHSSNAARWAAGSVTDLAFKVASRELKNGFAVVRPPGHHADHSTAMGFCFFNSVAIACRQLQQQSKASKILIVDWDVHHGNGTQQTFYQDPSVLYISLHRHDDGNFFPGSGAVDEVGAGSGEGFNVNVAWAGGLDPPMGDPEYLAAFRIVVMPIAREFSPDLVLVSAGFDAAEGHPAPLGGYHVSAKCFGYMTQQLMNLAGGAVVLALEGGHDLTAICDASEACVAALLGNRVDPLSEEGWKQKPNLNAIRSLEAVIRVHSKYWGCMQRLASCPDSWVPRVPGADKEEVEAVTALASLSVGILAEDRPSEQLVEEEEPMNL

Histone deacetylase 2 = Histone deacetylase 2 (Homo sapiens, UniProt Q92769); experiment: Inhibition of recombinant human C-terminal GST-tagged full length HDAC-2 expressed in baculovirus infected in Sf9 cells using Boc-Lys (q-Ac)-AMC as substrate incubated for 10 mins followed by substrate addition and measured after 30 mins by fluorescence based assay
Histone deacetylase 2, sequence (Q92769 whole entry): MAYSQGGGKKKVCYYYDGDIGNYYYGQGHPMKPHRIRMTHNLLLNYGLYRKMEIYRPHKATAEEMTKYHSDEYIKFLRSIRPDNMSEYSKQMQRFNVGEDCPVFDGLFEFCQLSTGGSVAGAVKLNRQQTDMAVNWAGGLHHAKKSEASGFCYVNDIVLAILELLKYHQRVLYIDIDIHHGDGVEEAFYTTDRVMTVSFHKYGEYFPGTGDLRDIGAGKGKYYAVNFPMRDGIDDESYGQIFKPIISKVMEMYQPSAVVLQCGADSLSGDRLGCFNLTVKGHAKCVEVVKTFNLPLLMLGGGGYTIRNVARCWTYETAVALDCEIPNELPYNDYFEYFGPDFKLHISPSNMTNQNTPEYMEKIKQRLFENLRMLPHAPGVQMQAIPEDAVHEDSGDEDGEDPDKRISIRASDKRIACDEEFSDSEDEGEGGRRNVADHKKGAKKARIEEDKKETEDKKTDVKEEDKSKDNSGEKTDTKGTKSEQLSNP

MDA-MB-231 [6] = experiment: Induction of apoptosis in human MDA-MB-231 cells assessed as increase in caspase-3 cleavage incubated for 48 hrs by Western blot analysis; format: functional, cell-based; conditions: dose 0.5-10 µM
[7] = Genotoxicity in Salmonella typhimurium TA98 by Ames test; format: toxicity; conditions: salmonella enterica subsp. enterica serovar typhimurium
4T1 [8] = experiment: Induction of apoptosis in mouse 4T1 cells implanted in BALB/c mouse assessed as increase in caspase-3 cleavage by immunohistochemistry method; format: functional, cell-based
[9] = Genotoxicity in Salmonella typhimurium TA1535 by Ames test; format: toxicity; conditions: salmonella enterica subsp. enterica serovar typhimurium
MDA-MB-231 [10] = experiment: Potency index, ratio of IC50 of SAHA to IC50 of compound for cytotoxicity against human MDA-MB-231 cells assessed as reduction in cell viability incubated for 48 hrs by MTT assay; format: functional
L02 = experiment: Cytotoxicity against human L02 cells assessed as reduction in cell viability incubated for 48 hrs by MTT assay; format: ADME, cell-based; conditions: L02, 48 h
4T1 [11] = experiment: Cytotoxicity against mouse 4T1 cells assessed as reduction in cell viability incubated for 48 hrs by MTT assay; format: functional, cell-based; conditions: 4T1, 48 h
BT-549 = experiment: Potency index, ratio of IC50 of SAHA to IC50 of compound for cytotoxicity against human BT-549 cells assessed as reduction in cell viability incubated for 48 hrs by MTT assay; format: functional
A-375 = experiment: Cytotoxicity against human A-375 cells assessed as reduction in cell viability incubated for 48 hrs by MTT assay; format: functional, cell-based; conditions: A-375, 48 h
Histone deacetylase 5 = Histone deacetylase 5 (Homo sapiens, UniProt Q9UQL6); experiment: Inhibition of recombinant human N-terminal GST-tagged HDAC-5 (617 to end residues) expressed in baculovirus infected in Sf9 cells using Boc-Lys (q-Ac)-AMC as substrate incubated for 10 mins followed by substrate addition and measured after 30 mins by fluorescence based assay
Histone deacetylase 5, sequence (Q9UQL6 whole entry): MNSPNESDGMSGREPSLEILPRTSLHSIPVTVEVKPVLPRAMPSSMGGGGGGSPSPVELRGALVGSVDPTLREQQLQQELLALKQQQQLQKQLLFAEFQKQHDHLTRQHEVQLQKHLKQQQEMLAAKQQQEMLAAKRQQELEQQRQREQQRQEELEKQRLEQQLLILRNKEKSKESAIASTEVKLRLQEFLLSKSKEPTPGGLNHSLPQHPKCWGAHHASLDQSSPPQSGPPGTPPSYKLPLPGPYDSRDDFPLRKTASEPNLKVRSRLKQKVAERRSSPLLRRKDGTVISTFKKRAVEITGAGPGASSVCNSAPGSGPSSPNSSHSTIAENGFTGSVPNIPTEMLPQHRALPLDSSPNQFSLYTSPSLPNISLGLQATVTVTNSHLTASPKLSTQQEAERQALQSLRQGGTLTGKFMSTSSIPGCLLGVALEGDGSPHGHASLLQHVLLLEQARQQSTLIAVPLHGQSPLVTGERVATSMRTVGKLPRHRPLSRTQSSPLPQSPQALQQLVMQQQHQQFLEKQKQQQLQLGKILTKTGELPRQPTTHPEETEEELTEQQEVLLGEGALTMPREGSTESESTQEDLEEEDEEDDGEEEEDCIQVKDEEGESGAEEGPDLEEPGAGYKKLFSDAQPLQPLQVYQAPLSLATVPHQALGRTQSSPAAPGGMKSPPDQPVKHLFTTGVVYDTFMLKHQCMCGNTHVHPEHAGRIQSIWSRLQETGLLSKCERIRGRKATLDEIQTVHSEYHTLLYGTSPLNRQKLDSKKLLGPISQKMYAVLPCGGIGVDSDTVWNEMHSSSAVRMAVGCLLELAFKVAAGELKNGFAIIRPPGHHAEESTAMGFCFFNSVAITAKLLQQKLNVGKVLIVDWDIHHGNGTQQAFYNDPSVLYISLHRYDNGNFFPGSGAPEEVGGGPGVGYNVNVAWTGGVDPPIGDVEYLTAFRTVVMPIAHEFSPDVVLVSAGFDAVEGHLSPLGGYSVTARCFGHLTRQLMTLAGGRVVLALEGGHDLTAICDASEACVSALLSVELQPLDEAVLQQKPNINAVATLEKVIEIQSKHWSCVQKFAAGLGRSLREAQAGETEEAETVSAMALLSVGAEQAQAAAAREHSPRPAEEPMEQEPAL

Histone deacetylase 4 = Histone deacetylase 4 (Homo sapiens, UniProt P56524); experiment: Inhibition of recombinant human N-terminal GST-tagged HDAC-4 (612 to end residues) expressed in baculovirus infected in Sf9 cells using Boc-Lys (q-Ac)-AMC as substrate incubated for 10 mins followed by substrate addition and measured after 30 mins by fluorescence based assay
Histone deacetylase 4, sequence (P56524 whole entry): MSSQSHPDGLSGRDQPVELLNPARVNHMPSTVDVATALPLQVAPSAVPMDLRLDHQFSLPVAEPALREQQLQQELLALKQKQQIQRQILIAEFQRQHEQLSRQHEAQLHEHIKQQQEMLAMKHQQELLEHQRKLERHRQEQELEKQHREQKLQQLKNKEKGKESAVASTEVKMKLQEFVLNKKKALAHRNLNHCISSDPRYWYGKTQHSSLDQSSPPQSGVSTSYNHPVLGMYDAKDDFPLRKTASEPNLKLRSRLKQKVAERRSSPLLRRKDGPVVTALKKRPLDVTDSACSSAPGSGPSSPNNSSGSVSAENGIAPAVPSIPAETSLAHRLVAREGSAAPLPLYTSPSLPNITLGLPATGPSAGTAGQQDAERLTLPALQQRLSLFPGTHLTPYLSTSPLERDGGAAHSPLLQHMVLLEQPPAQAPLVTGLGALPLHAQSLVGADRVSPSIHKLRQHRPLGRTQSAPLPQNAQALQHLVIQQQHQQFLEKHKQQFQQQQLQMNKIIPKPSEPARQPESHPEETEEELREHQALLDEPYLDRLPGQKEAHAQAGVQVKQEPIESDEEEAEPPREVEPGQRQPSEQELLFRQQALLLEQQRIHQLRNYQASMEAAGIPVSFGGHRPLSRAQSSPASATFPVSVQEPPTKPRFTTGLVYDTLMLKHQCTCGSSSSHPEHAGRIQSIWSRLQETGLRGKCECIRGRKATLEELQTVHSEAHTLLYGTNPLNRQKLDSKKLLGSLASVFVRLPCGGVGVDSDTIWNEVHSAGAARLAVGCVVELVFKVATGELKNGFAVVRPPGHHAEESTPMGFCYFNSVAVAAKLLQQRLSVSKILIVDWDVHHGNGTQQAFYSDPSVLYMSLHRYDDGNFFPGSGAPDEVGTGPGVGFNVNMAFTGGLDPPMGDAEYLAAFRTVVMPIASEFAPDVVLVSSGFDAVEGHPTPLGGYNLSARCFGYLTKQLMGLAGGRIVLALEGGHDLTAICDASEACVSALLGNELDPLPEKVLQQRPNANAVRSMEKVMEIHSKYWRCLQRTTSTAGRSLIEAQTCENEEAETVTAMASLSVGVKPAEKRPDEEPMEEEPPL

MDA-MB-231 [12] = experiment: Induction of cell cycle arrest in human MDA-MB-231 cells assessed as increase in G0/G1 phase accumulation incubated for 24 hrs by flow cytometry analysis; format: functional, cell-based; conditions: dose 1-2 µM
[13] = Toxicity in C57BL/6 mouse assessed death of organism at 300 mg/kg, ip observed for 24 hrs; format: organism-based; conditions: in vivo
4T1 [14] = experiment: Induction of apoptosis in mouse 4T1 cells assessed as necrotic cells at 5 uM incubated for 72 hrs by annexinV-FITC and PI staining based flow cytometry analysis (reference value: 5.00 %); format: functional
Histone deacetylase 11 = Histone deacetylase 11 (Homo sapiens, UniProt Q96DB2); experiment: Inhibition of recombinant human N-terminal GST-tagged full length HDAC-11 expressed in baculovirus infected in Sf9 cells using Boc-Lys (q-Ac)-AMC as substrate incubated for 10 mins followed by substrate addition and measured after 30 mins by fluorescence based assay
Histone deacetylase 11, sequence (Q96DB2 whole entry): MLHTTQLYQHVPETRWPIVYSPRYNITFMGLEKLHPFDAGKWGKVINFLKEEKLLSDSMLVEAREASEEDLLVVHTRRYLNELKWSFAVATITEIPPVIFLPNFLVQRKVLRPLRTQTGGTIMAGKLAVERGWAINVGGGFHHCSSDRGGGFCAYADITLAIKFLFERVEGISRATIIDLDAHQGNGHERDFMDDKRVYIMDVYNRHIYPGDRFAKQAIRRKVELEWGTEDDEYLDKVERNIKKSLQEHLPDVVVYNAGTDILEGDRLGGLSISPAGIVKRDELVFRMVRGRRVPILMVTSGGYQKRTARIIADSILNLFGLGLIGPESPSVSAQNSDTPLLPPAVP

MDA-MB-231 [15] = experiment: Antitumor activity against human MDA-MB-231 cells xenografted in nude mouse assessed as tumor growth inhibition at 25 mg/kg, ip administered for 34 days and measured on day 34; format: functional, organism-based; conditions: time 34.0 day
SUM-159-PT = experiment: Cytotoxicity against human SUM159PT cells assessed as reduction in cell viability incubated for 48 hrs by MTT assay; format: functional, cell-based
[16] = target: Histone deacetylase 7 (Homo sapiens) (UniProt Q8WUI4); experiment: as §1, with “cells at 10 uM” for “cells”, “assay relative to control” for “assay”; conditions: time 40.0 min
Histone deacetylase 7 (Homo sapiens), sequence (Q8WUI4 whole entry): as the sequence (Q8WUI4 whole entry) above

[17] = Tmax in Sprague-Dawley rat at 20 mg/kg, iv measured upto 12 hrs by LC-MS/MS analysis; format: ADME, organism-based; conditions: in vivo
4T1 [18] = experiment: Induction of apoptosis in mouse 4T1 cells assessed as early apoptotic cells at 1 uM incubated for 72 hrs by annexinV-FITC and PI staining based flow cytometry analysis (reference value: 1.65 %); format: functional
MDA-MB-231 [19] = experiment: Induction of cell cycle arrest in human MDA-MB-231 cells assessed as S phase accumulation at 1 uM incubated for 24 hrs by PI staining based flow cytometry analysis (reference value: 43.82 %); format: functional
MDA-MB-231 [20] = experiment: Induction of apoptosis in human MDA-MB-231 cells assessed as effect on Bax expression at 0.5 to 10 uM incubated for 48 hrs by Western blot analysis; format: functional, cell-based; conditions: dose 0.5-10 µM
[21] = Toxicity in BALB/c mouse xenografted with mouse 4T1 cells assessed as effect on body weight at 50 mg/kg, po administered for 22 days and measured on day 22; format: organism-based; conditions: in vivo, 528 h, time 22 day
MDA-MB-231 [22] = experiment: Induction of apoptosis in human MDA-MB-231 cells assessed as viable cells at 2.5 uM incubated for 72 hrs by annexinV-FITC and PI staining based flow cytometry analysis (reference value: 90.3 %); format: functional; conditions: read-out: Activity
4T1 [23] = experiment: Induction of apoptosis in mouse 4T1 cells assessed as viable cells at 1 uM incubated for 72 hrs by annexinV-FITC and PI staining based flow cytometry analysis (reference value: 91.1 %); format: functional; conditions: read-out: Activity
[24] = target: Polyamine deacetylase HDAC10 (Homo sapiens, UniProt Q969S8); experiment: Inhibition of recombinant human N-terminal GST-tagged HDAC-10 (1 to 482 residues) expressed in baculovirus infected in Sf9 cells using Boc-Lys (q-Ac)-AMC as substrate incubated for 10 mins followed by substrate addition and measured after 30 mins by fluorescence based assay
Polyamine deacetylase HDAC10, sequence (Q969S8 whole entry, the tested form may be a part): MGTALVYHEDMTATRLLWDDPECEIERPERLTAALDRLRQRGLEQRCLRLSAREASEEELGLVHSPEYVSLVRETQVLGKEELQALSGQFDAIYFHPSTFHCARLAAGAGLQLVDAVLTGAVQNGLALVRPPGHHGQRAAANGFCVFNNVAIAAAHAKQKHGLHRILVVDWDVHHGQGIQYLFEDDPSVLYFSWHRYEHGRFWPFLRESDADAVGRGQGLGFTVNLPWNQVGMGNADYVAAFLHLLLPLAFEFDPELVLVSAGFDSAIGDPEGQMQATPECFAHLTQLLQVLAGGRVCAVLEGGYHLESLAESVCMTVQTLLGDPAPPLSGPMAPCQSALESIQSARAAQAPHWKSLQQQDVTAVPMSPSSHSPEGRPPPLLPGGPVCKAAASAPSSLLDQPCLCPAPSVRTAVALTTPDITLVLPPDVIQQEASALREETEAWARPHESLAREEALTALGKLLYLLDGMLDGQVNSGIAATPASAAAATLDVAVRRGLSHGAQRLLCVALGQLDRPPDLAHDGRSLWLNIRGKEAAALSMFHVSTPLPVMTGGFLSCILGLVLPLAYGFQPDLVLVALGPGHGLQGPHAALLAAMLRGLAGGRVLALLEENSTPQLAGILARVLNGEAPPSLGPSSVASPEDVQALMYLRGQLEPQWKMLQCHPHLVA

## CN(C)CCOc1ccc(-c2cc(=O)c3c(O)cc(OCCCCCC(=O)NO)cc3o2)cc1.Cl
4T1 [1]
  Activity: Dose-dependent effect
[2]
  half-life: 85.3 min
[3]
  IC50: 510 nM
4T1 [4]
  TGI: Active
4T1 [5]
  Activity: 30.99%
Histone deacetylase 7
  IC50: > 10000 nM
Histone deacetylase 2
  IC50: 58.5 nM
MDA-MB-231 [6]
  Activity: Dose-dependent effect
[7]
  Activity: Toxic
4T1 [8]
  Activity: Active
[9]
  Activity: Non-Toxic
MDA-MB-231 [10]
  Ratio IC50: 2
L02
  IC50: > 10000 nM
4T1 [11]
  IC50: 1990 nM
BT-549
  Ratio IC50: 2
A-375
  IC50: 1180 nM
Histone deacetylase 5
  IC50: > 10000 nM
Histone deacetylase 4
  IC50: 307 nM
MDA-MB-231 [12]
  Activity: Dose-dependent effect
[13]
  Activity: Non-Toxic
4T1 [14]
  Activity: 0.852%
Histone deacetylase 11
  IC50: 179 nM
MDA-MB-231 [15]
  TGI: Active
SUM-159-PT
  IC50: 277 nM
[16]
  inhibition: 43%
[17]
  Tmax: 4.98 min
4T1 [18]
  Activity: 15.5%
MDA-MB-231 [19]
  Activity: 8.09%
MDA-MB-231 [20]
  Activity: inactive
[21]
  Activity: Non-Toxic
MDA-MB-231 [22]
  viability at 2.5 µM: 25.5%
4T1 [23]
  viability at 1 µM: 72.3%
[24]
  IC50: 247 nM
